According to ChEMBL document CHEMBL1137385, “Macrocyclic inhibitors of beta-secretase: functional activity in an animal model” (J Med Chem, 2006):

Tests used:
Beta-secretase 1 [1] = biological target: T1, Beta-secretase 1 (Homo sapiens, UniProt P56817); experiment: Inhibition of BACE1 at pH 4.5
Beta-secretase 1 [2] = biological target: T1, Beta-secretase 1; experiment: Inhibition of BACE1 in HEK293T cells; assay type: cell-based, HEK-293T
[3] = Apparent permeability in porcine LLC-PK1 cells; assay type: ADME, cell-based, Sus scrofa; details: pig
Mus musculus [4] = experiment: Ratio of drug level in brain against plasma in C57/BL6 APP-YAC mouse model at 100 mg/kg, iv; assay type: ADME, organism-based, C57Bl/6; parameters: dose 100 mg/kg, route intravenous
Mus musculus [5] = experiment: Drug level in brain of C57/BL6 APP-YAC mouse model at 100 mg/kg, iv; assay type: ADME, organism-based, C57Bl/6; parameters: dose 100 mg/kg, route intravenous; details: in vivo, read-out: Drug uptake

T1 sequence (P56817 whole entry): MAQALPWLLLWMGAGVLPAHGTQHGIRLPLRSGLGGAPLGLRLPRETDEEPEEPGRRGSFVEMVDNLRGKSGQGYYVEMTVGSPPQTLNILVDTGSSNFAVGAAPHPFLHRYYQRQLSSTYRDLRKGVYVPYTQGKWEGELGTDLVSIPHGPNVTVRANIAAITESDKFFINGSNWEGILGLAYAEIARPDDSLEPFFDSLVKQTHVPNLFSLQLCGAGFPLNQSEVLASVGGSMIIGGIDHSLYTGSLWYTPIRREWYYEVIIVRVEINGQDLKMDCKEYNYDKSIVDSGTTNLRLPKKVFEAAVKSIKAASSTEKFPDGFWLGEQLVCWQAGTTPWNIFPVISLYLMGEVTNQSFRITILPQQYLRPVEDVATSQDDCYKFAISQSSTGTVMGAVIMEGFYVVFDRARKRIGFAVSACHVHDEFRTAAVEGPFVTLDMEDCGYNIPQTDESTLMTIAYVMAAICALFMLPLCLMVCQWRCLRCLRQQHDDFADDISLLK

In the case of `CC[C@H](NCC1Cc2cccc(c2)CCCCCc2cc(cc(N(C)S(C)(=O)=O)c2)C(=O)N1)C(=O)NCC(C)C` (stereo partly drawn), the IC50 (Beta-secretase 1 [1]) is reported as 1100 nM.
`CC[C@H](NCC1Cc2cccc(c2)CCCCc2cc(cc(N(C)S(C)(=O)=O)c2)C(=O)N1)C(=O)NCC(C)C` (stereo partly drawn) gave an IC50 (Beta-secretase 1 [2]) of 1140 nM, a Papp [3] of 19 ×10⁻⁶ cm/s and an IC50 (Beta-secretase 1 [1]) of 90 nM.
Compound `CNC(=O)c1cc(C(=O)NC(CO)Cc2cccc(OC)c2)cc(N(C)S(C)(=O)=O)c1` (stereo not drawn) has an IC50 (Beta-secretase 1 [1]) of over 100000 nM.
Compound `CC[C@H](NCC1Cc2cccc(c2)OCCNC(=O)c2cc(cc(N(C)S(C)(=O)=O)c2)C(=O)N1)C(=O)NCC(C)C` (stereo partly drawn) has an IC50 (Beta-secretase 1 [2]) of 5400 nM, a Papp [3] of 0.5 ×10⁻⁶ cm/s and an IC50 (Beta-secretase 1 [1]) of 32 nM.
Work on `CCCC[C@H](NC[C@@H]1Cc2cccc(c2)CCCCc2cc(cc(N(CCC)S(C)(=O)=O)c2)C(=O)N1)C(=O)NCC(C)C` yielded an IC50 (Beta-secretase 1 [2]) of 76 nM, a BPR (Mus musculus [4]) of 20% and a concentration (Mus musculus [5]) of 1100 nM. It also gave a Papp [3] of 13 ×10⁻⁶ cm/s and an IC50 (Beta-secretase 1 [1]) of 4 nM.
